Experimental data as given in patent US20150094474A1, “AGRICULTURAL CHEMICALS” (Redx Pharma Ltd., priority 2012, published 2015).

Tested on: barley
Assay: Herbicidal bioassay, barley (% necrosis)
Format: in vivo
Outline: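 Lolium perenne, barley, peas and Chinese cabbage at 2-4 true leaf stage sprayed simultaneously with a Potter tower, compounds in DMSO at six concentrations (0.05% to 0.0001%). Phytotoxicity scored as % necrosis per EPPO PP1/135 at set intervals; five replicates per treatment and species; DMSO and water controls.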

CCOC(=O)C(C)Oc1ccc(Oc2ccc(C(F)(F)F)cn2)cc1 (stereo not drawn) [Fluazifop Ethyl ester (62)]
Sum of % necrosis in barley (Dose 0.000001, Day 0): C (less than 50% necrosis) | Sum of % necrosis in barley (Dose 0.000001, Day 1): C (less than 50% necrosis) | Sum of % necrosis in barley (Dose 0.000001, Day 3): C (less than 50% necrosis) | Sum of % necrosis in barley (Dose 0.000001, Day 7): C (less than 50% necrosis) | Sum of % necrosis in barley (Dose 0.000001, Day 10): C (less than 50% necrosis) | Sum of % necrosis in barley (Dose 0.000001, Day 14): C (less than 50% necrosis) | Sum of % necrosis in barley (Dose 0.000001, Day 21): C (less than 50% necrosis) | Sum of % necrosis in barley (Dose 0.000005, Day 0): C (less than 50% necrosis) | Sum of % necrosis in barley (Dose 0.000005, Day 1): C (less than 50% necrosis) | Sum of % necrosis in barley (Dose 0.000005, Day 3): C (less than 50% necrosis) | Sum of % necrosis in barley (Dose 0.000005, Day 7): C (less than 50% necrosis) | Sum of % necrosis in barley (Dose 0.000005, Day 10): C (less than 50% necrosis) | Sum of % necrosis in barley (Dose 0.000005, Day 14): C (less than 50% necrosis) | Sum of % necrosis in barley (Dose 0.000005, Day 21): C (less than 50% necrosis) | Sum of % necrosis in barley (Dose 0.00001, Day 0): C (less than 50% necrosis) | Sum of % necrosis in barley (Dose 0.00001, Day 1): C (less than 50% necrosis) | Sum of % necrosis in barley (Dose 0.00001, Day 3): C (less than 50% necrosis) | Sum of % necrosis in barley (Dose 0.00001, Day 7): C (less than 50% necrosis) | Sum of % necrosis in barley (Dose 0.00001, Day 10): C (less than 50% necrosis) | Sum of % necrosis in barley (Dose 0.00001, Day 14): C (less than 50% necrosis) | Sum of % necrosis in barley (Dose 0.00001, Day 21): B (50%-80% necrosis) | Sum of % necrosis in barley (Dose 0.00005, Day 0): C (less than 50% necrosis) | Sum of % necrosis in barley (Dose 0.00005, Day 1): C (less than 50% necrosis) | Sum of % necrosis in barley (Dose 0.00005, Day 3): C (less than 50% necrosis) | Sum of % necrosis in barley (Dose 0.00005, Day 7): C (less than 50% necrosis) | Sum of % necrosis in barley (Dose 0.00005, Day 10): C (less than 50% necrosis) | Sum of % necrosis in barley (Dose 0.00005, Day 14): C (less than 50% necrosis) | Sum of % necrosis in barley (Dose 0.00005, Day 21): B (50%-80% necrosis) | Sum of % necrosis in barley (Dose 0.0001, Day 0): C (less than 50% necrosis) | Sum of % necrosis in barley (Dose 0.0001, Day 1): C (less than 50% necrosis) | Sum of % necrosis in barley (Dose 0.0001, Day 3): C (less than 50% necrosis) | Sum of % necrosis in barley (Dose 0.0001, Day 7): C (less than 50% necrosis) | Sum of % necrosis in barley (Dose 0.0001, Day 10): C (less than 50% necrosis) | Sum of % necrosis in barley (Dose 0.0001, Day 14): C (less than 50% necrosis) | Sum of % necrosis in barley (Dose 0.0001, Day 21): A (over 80% necrosis) | Sum of % necrosis in barley (Dose 0.0005, Day 0): C (less than 50% necrosis) | Sum of % necrosis in barley (Dose 0.0005, Day 1): C (less than 50% necrosis) | Sum of % necrosis in barley (Dose 0.0005, Day 3): C (less than 50% necrosis) | Sum of % necrosis in barley (Dose 0.0005, Day 7): C (less than 50% necrosis) | Sum of % necrosis in barley (Dose 0.0005, Day 10): C (less than 50% necrosis) | Sum of % necrosis in barley (Dose 0.0005, Day 14): C (less than 50% necrosis) | Sum of % necrosis in barley (Dose 0.0005, Day 21): A (over 80% necrosis)
